Values joined by “and” are separate entries in the source; they are usually repeats but may differ in a detail not shown here. Equal entries are not always repeated. “Also recorded” adds a separate entry of the source. Where two headings read alike, the source gives them in different places.
Tests used:
p-glycoprotein [1] = conditions: mouse, in vivo; cited from earlier work
[2] = system: O . volvulus microfilaria; conditions: cited from earlier work
[3] = cited from earlier work
[4] = gastrointestinal tract or solution; cited from earlier work
[5] = Phase I pharmacokinetics of CPT-11, SN-38 and SN-38G in plasma/urine after 90 min iv infusion
Method: All patients met the standard laboratory criteria including criteria for adequate organ function. Informed, written consent was obtained from all patients prior to their first dose of CPT-11. The drug was given in 500 cc normal saline by intravenous infusion over 90 minutes on a weekly basis for four doses in a sixweek cycle. […] A second cycle was given with the same dose and schedule used during cycle 1. […] Patients who experienced dose limiting neutropenia were eligible to receive G-CSF at 5 μg/kg/day according to the criteria defined below.
To determine drug and metabolite levels, heparinized blood samples obtained on the first cycle of therapy, were centrifuged and the plasma was stored at -70° C. until analysis. CPT (camptothecin, 1 μg/ml, obtained from the National Cancer Institute, Bethesda, Md.) was used as an internal standard. One hundred μl of plasma was extracted with 2 ml of methanol, centrifuged at 2500×g for 10 min and the supernatant was evaporated to dryness. Reconstitution was done with 200 μl of methanol containing 0.1% 10M HCL (pH~2.0). For the estimation of SN-38G, plasma samples were extracted as described above. Prior to reconstitution, the samples were incubated with 1000 U of glucuronidase (Sigma Chemical Co., St. Louis, Mo.) for 2 hours at 37° C.
Analysis was done using a C18 column (μBondapak, 10 μm, 3.9×300 mm; Waters Associates, Milford, Mass.) preceded by a Novapak C18 guard column. […] Detection was monitored by a Hitachi F1050 Fluorescence detector (Hitachi Instruments Inc., Naperville, Ill.) with a λex at 375 nm and λem at 566 nm. […] SN-38G concentrations were determined as the increase in SN-38 concentrations following incubation with glucuronidase.
The plasma concentration-time data of CPT-11, SN-38 and SN-38G were analyzed by non-compartmental analysis using PCNONLIN (SCI, Lexington, Ky.). The area under the plasma concentration-time curve (AUC) from time zero (predose) to the time of the last quantifiable concentration (AUCt) was calculated by the trapezoidal rule. The AUC extrapolated to time infinity (AUCt →.infin.) was estimated by dividing the last quantifiable concentration by the terminal rate constant obtained by the log-linear regression of the terminal elimination phase. The AUC was the summation of AUCt and AUCt→.infin.. Clearance (CL) was estimated as the ratio of the dose and AUC.
The present study employed this principle to obtain an estimate of SN-38 excreted in the bile. Since glucuronidation is the major pathway of elimination of SN-38, the fraction of SN-38 not conjugated would be primarily excreted in the bile. The net biliary concentration of SN-38 would then be a resultant of its formation and elimination. This concentration was expressed as the "biliary ratio" which was the ratio of AUC of SN-38 to SN-38G. To control for individual variability in the amount of available drug, the ratio was multiplied by the AUC of CPT-11 to obtain a "biliary index" of SN-38.
The nonparametric Mann-Whitney test was employed to test for differences in pharmacokinetic outcomes between two patient groups, defined by the worst severity of diarrhea experienced in the first two cycles of CPT-11 treatment. Statistical tests were performed in the Number Cruncher Statistical System (Dr. Jerry Hintz, Kaysville, Utah). A two-sided significance level of less than or equal to 0.05 was considered statistically significant.

p-glycoprotein [6] = target: T1, p-glycoprotein (Homo sapiens, UniProt P08183); assay: in vitro; type: binding
T1 construct: membrane vesicles from the multidrug resistant breast tumor cell line; endogenous in cells; host or cells: MCF-7/Adr (multidrug resistant human breast cancer cell line), membrane vesicles
Text: FIG. 5. […]. Membrane vesicles from the multidrug resistant human breast cancer tumor cell line […] were used. […].

tumors = conditions: cited from earlier work
[7] = nude mice, accumulation in the intestine; cited from earlier work
[8] = cited from earlier work; remark: listed apart in the source
[9] = animal studies; cited from earlier work
p-glycoprotein [10] = conditions: cited from earlier work
[11] = system: multi-drug resistance (MDR) P388 cells; conditions: cited from earlier work
p-glycoprotein [12] = conditions: cited from earlier work; remark: listed apart in the source
DNA topoisomerase 1 = conditions: cited from earlier work
[13] = sodium salt; cited from earlier work
glucuronosyltransferase = conditions: cited from earlier work
p-glycoprotein [14] = conditions: rat, in vivo
Method: Animal protocol: Female Wistar rats (~200 gm) having a permanent catheter installed in the right jugular vein were obtained from Charles River Breeding Laboratories (Wilmington, Mass.).
The catheter was flushed with 500 μl of physiologic saline after each drug administration.
After each sample the catheter was flushed with an equal volume of physiologic saline. The samples were immediately centrifuged at 2500×g for 10 minutes and the plasma obtained was stored at -70° C. until analysis.
Data Analysis: The plasma concentration-time profile of the control and pretreated groups of rats were analyzed using non-compartmental methods (PCNONLIN, SCI, Lexington, Ky.). […] The nonparametric Mann-Whitney test was used to test for differences in AUC between the control and pretreated groups.

T1 sequence (P08183 whole entry): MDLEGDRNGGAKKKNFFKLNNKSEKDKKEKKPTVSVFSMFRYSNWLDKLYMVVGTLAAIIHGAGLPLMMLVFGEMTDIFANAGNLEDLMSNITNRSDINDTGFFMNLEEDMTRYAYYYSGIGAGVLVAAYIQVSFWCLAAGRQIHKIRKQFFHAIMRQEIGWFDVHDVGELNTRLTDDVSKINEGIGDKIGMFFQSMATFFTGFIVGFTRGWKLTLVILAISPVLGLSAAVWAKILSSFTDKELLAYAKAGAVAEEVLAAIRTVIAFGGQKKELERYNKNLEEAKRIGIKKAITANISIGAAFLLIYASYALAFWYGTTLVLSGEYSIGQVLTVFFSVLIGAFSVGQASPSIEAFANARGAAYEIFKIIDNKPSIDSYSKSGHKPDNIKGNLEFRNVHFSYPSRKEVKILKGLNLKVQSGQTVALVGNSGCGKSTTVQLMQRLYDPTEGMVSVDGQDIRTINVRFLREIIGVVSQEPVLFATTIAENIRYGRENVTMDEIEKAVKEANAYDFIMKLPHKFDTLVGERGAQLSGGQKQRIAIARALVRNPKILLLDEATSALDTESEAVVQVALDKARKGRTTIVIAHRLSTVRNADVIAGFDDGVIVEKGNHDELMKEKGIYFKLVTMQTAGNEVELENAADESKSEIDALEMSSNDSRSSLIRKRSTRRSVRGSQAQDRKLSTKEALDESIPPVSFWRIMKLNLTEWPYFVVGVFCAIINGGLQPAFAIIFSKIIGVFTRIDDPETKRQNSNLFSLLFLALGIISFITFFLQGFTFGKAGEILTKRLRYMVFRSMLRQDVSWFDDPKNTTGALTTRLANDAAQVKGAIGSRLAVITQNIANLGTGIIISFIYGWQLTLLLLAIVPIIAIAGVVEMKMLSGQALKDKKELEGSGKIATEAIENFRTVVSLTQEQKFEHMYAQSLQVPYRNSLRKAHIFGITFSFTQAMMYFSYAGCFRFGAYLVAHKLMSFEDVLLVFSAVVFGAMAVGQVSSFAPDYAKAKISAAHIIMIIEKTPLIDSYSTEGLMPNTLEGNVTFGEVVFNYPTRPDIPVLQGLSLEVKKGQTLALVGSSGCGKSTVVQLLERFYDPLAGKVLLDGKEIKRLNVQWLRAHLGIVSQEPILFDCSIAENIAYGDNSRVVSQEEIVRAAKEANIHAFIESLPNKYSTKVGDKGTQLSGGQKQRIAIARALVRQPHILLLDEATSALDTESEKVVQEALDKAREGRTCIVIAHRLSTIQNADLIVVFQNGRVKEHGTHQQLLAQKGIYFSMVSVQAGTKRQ

CC[C@H](C)[C@H]1O[C@]2(CC[C@@H]1C)C[C@@H]1C[C@@H](C/C=C(\C)[C@@H](O[C@H]3C[C@H](OC)[C@@H](O[C@H]4C[C@H](OC)[C@@H](O)[C@H](C)O4)[C@H](C)O3)[C@@H](C)/C=C/C=C3\CO[C@@H]4[C@H](O)C(C)=C[C@@H](C(=O)O1)[C@]34O)O2 [Ivermectin]
sensitivity of p-glycoprotein-disrupted mice (p-glycoprotein [1]): increased sensitivity
cure of strongyloidiasis ([2]; single dose): can cure human strongyloidiasis
reduction of microfilaria in skin and ocular tissues ([2]; single oral dose 0.15 to 0.20 mg/kg): rapid and marked reduction
time to peak plasma concentration ([3]; oral): ≤ 4 h
half-life ([3]; plasma or terminal half-life): about 10 hours

O.O=P1(N(CCCl)CCCl)NCCCO1 (centres unmarked) [Cyclophosphamide, 2H-1,3,2-Oxazaphosphorin-2-amine, N,N-bis(2-chloroethyl)tetrahydro-, 2-oxide, monohydrate]
stability [4]: stable in the gastrointestinal tract

CCc1c2c(nc3ccc(O)cc13)-c1cc3c(c(=O)n1C2)COC(=O)[C@]3(O)CC [SN-38, 7-ethyl-10-hydroxy-camptothecin]
increase in AUC SN-38 from secondary peak ([5]; in vivo): ~12%
increase of AUC from 100 to 175 mg/m^2 ([5]; in vivo): 3.7 fold
interpatient variability of AUC (percent coefficient of variation) ([5]; in vivo): 2-44%
substrate of p-glycoprotein (p-glycoprotein [6]): substrates of p-glycoprotein
inhibition at 100 µM (p-glycoprotein [6]; human, mcf-7/adr membrane vesicles): 60%
potency relative to the parent drug CPT-11 (tumors; in vivo): 600-1000 times
cause of diarrhea [7]: responsible for the diarrhea
biliary radioactivity excreted over 24 h as ([8]; rat, in vivo): 9%
terminal half-life of closed ring forms ([3]; human, in vivo): 7.6 to 8.8 h
route of excretion [9]: excreted primarily into bile

C/C=C/C[C@@H](C)C(=O)[C@H]1C(=O)N[C@@H](C(C)C)C(=O)N(C)CC(=O)N(C)[C@@H](CC(C)C)C(=O)N[C@@H](C(C)C)C(=O)N(C)[C@@H](CC(C)C)C(=O)N[C@@H](C)C(=O)N[C@H](C)C(=O)N(C)[C@@H](CC(C)C)C(=O)N(C)[C@@H](CC(C)C)C(=O)N(C)[C@@H](C(C)C)C(=O)N1C [SDZ PSC 833]
inhibition of / interaction with p-glycoprotein (p-glycoprotein [10]): inhibited p-glycoprotein; also recorded: effective inhibitor; also recorded: effective at inhibiting p-glycoprotein
persistence of p-glycoprotein inhibition (p-glycoprotein [10]; single pulse exposure): still exhibiting inhibition of p-glycoprotein function even two days after a single pulse exposure
p-glycoprotein inhibition relative to comparator (p-glycoprotein [10]; vs verapamil, cyclosporine A, progesterone or anthracycline analogues): more effective than cyclosporine A; also recorded: stronger inhibitors than verapamil
activity relative to cyclosporine A in restoring drug sensitivity [11]: at least one order of magnitude more active than cyclosporine A
effect of acidic extracellular conditions on inhibitory activity (p-glycoprotein [12]; acidic pH): not affected by acidic extracellular conditions
inhibition of vinblastine transport (p-glycoprotein [12]): the most effective inhibitor
lowest inhibitory concentration (p-glycoprotein [12]): 10 ng/ml and 9 nM

CC[C@@]1(O)C(=O)OCc2c1cc1n(c2=O)Cc2cc3ccccc3nc2-1 [Camptothecin]
antitumor activity reduction (tumors; sodium salt vs closed lactone): about 10 fold
concentration producing nicks in the DNA (DNA topoisomerase 1): about 0.5 μM
dose-limiting toxicity in early clinical trials [13]: severe dose-limiting hemorrhagic cystitis and unpredictable myelosuppression

Cc1c(-c2cnccn2)ssc1=S [Oltipraz, 4-methyl-5(2-pyrazinyl)-3H-1,2-dithiole-3-thione]
induction of phase II enzymes / glucuronidation (glucuronosyltransferase): inducer of GST and UDP-glucuronosyltransferase

CCc1c2c(nc3ccc(O[C@@H]4O[C@H](C(=O)O)[C@@H](O)[C@H](O)[C@H]4O)cc13)-c1cc3c(c(=O)n1C2)COC(=O)[C@]3(O)CC [SN-38G]
increase of AUC from 100 to 175 mg/m^2 ([5]; 1.75 fold dose range): 2.7 fold
urinary estimates of SN-38G, fold lower in patients with grade 3-4 diarrhea (average) ([5]; grade 3-4 diarrhea): 2.5 fold
increase in AUC between 145 and 175 mg/m^2 ([5]; in vivo): no increase
Overall Increase in AUC SN-38G (p-glycoprotein [14]): 1.93 fold
biliary radioactivity excreted over 24 h as ([8]; rats, 24 h): 22%

Source: patent US5786344A, “Camptothecin drug combinations and methods with reduced side effects” (priority 1995, dated 1998)
